Assay results taken from BigSolDB 2.1.

Brc1cnc2[nH]ccc2c1
solubility (mole fraction)
Settings | in acetonitrile | in dichloromethane | in ethanol | in ethyl acetate | in isopropanol | in methanol | in methyl acetate | in n-butanol | in n-hexane | in n-propanol
278.15 K | 0.00224 | 0.00083 | 0.0078 | 0.0161 | 0.00779 | 0.00595 | 0.0222 | 0.0154 | 0.00015 | 0.00916
283.15 K | 0.00304 | 0.00133 | 0.00958 | 0.0184 | 0.00915 | 0.00673 | 0.0253 | 0.0177 | 0.00017 | 0.0109
288.15 K | 0.00366 | 0.00216 | 0.0106 | 0.02 | 0.0106 | 0.00779 | 0.0279 | 0.0202 | 0.00019 | 0.0123
293.15 K | 0.00436 | 0.00333 | 0.0125 | 0.0225 | 0.0123 | 0.00882 | 0.0312 | 0.0228 | 0.00021 | 0.0145
298.15 K | 0.00519 | 0.00505 | 0.0139 | 0.0258 | 0.0143 | 0.00972 | 0.0347 | 0.0251 | 0.00024 | 0.0165
303.15 K | 0.00616 | 0.00749 | 0.0158 | 0.0286 | 0.0165 | 0.0111 | 0.0381 | 0.0278 | 0.00027 | 0.0188
308.15 K | 0.00726 | 0.0106 | 0.0177 | 0.0321 | 0.019 | 0.0124 | 0.0419 | 0.0312 | 0.0003 | 0.0209
313.15 K | 0.00858 | 0.0148 | 0.0198 | 0.0363 | 0.0217 | 0.0138 | 0.0459 | 0.0345 | 0.00034 | 0.0237
318.15 K | 0.00981 | – | 0.0222 | 0.0404 | 0.0252 | 0.0153 | 0.0509 | 0.0377 | 0.00036 | 0.0268
323.15 K | 0.0116 | – | 0.0245 | 0.045 | 0.0275 | 0.0171 | 0.0549 | 0.0415 | 0.00041 | 0.0298
